Data taken from patent US20240093259A1, “METHODS TO STABILIZE MAMMALIAN CELLS” (THE REGENTS OF THE UNIVERSITY OF CALIFORNIA, priority 2019, published 2024).

Legend:
Format in all cases: cell-based, Chinese hamster
[1] = system: CHO-K1 cells; experiment: EJ5-GFP double-strand break (DSB) reporter flow cytometry assay in CHO-K1
Excerpt: FIGS. 2A-2B show GFP-based double-strand break (DSB) reporter system. […] The spacer prevents the promoter from driving GFP expression. Step 2: Transient transfection with the DSB-inducing plasmid (B) induces two DSBs at the 5′ and 3′ ends of the spacer. Successfully transfected cells are identified through far-red fluorescence from miRFP670, fused to Cas9 (B). Step 3: Transfected cells that repair both DSBs properly keep the spacer in place and thus remain GFP-negative. Transfected cells that fail to repair both DSBs in time produce a large sequence loss, moving the GFP in proximity to the promoter, resulting in GFP expression. Thus, the fraction of GFP-positive cells among all transfected cells (far-red positive) serves as a read-out for the inefficiency of DSB repair. […]
The invention provides a tool to quantify double-strand break (DSB) repair in CHO. […] This reporter system comprises a GFP reading frame, separated from its promoter with a large (2 kb) spacer (FIG. 2A). […] Thus, this tool allows quantitative detection of DSB repair efficiency in living cells and is a powerful read-out for how restoration of individual DSB repair genes improves chromosome stability.
The EJ5-GFP reporter plasmid (addgene #44026) was linearized with XhoI and transfected into CHO-K1 and CHO-SEAP using electroporation (Neon, Thermo Fisher). […] Impaired DSB repair is detected by positive GFP expression. […]

[2] = system: CHO-K1 cells; experiment: Karyotype analysis after long-term culture (multi-color FISH chromosome painting); settings: wild-type CHO-K1 cultured under permanent supplementation, 60 passages
Experimental: Metaphase spreads were prepared as previously described. Samples were labeled with multi-color DNA fluorescence in situ hybridization (FISH) probes (12× CHamster mFISH probe kit, MetaSystems) for spectral karyotyping as previously described. For karyotypic analyses, the most abundant karyotype across samples was defined as the representative (“main”) karyotype, and deviations from this karyotype were scored as a numerical alteration (whole-chromosomal aneuploidy) and/or structural alteration (inter-chromosomal rearrangement, visible deletion). Structurally aberrant karyotypes (FIG. 8b) were defined as karyotypes showing at least one structural deviation from the representative karyotype. Since unrepaired DSBs can lead to chromosomal aberrations, as mentioned above, we prepared karyotype samples of wildtype and engineered cell lines to analyze chromosomal aberrations on the single cell level. For this, both ATM+ and ATM+ PRKDC+ cell lines were cultured in parallel to the parental wildtype clone for a total of 60 passages (approx. 120 doublings) after which cells were arrested in mitosis, metaphase chromosomal spreads were prepared and stained with chromosome-specific probes (“chromosome painting”) to detect structural and numerical variations. […]

[3] = system: CHO-SEAP cells; experiment: Long-term culture SEAP titer (SEAP reporter assay); settings: CHO-SEAP cells under constant 5 μM MTX supplementation, 48 passages
Experimental: Cells were cultured in triplicates on 6-well plates. All cells were treated with 5 μM methotrexate (MTX) (MilliporeSigma) for 2 weeks at the beginning of the study (P0-P7) after which only one triplicate per genotype was continued under MTX until the rest of the study. Cells were cultured for 48 passages in total, with 3 passages/week. […]. Protein titer was measured at P0, P7, and P48 using a SEAP reporter assay (Applied Biosystems, ThermoFisher).
To finally investigate whether DNA-repair optimization has beneficial effects on transgene expression, we grew CHO-SEAP WT and CHO-SEAP CMV::XRCC6 alongside in a long-term culture experiment, and compared SEAP titer at the beginning and the end. Prior to the start of the experiment, cells were cultured in 5 uM methotrexate (MTX) for 1 week to select for high SEAP expression, after which MTX was taken off the growth medium in half of the samples (FIG. 9c). MTX is a competitive inhibitor of dihydrofolate reductase, an essential metabolic enzyme, which is co-expressed with the transgenic SEAP locus (FIG. 9b).

| Structure (SMILES) | fraction of GFP+ cells (inefficiency of DSB repair) ([1]; CHO-K1 carrying GFP reporter, DSB-inducer transfection, ATM inhibitor 3 μM, FACS 24h after transfection) | GFP+ positive cells (compromised DSB repair) ([1]; CHO-K1 wildtype carrying EJ5-GFP, DSB-inducing plasmid, vs DMSO (Example 2, FIG. 5c)) | structural abnormalities in karyotype [2] | SEAP titer at end of long-term culture [3] |
| --- | --- | --- | --- | --- |
| C[C@@H]1CN(CC(=O)Nc2ccc3c(c2)Cc2cccc(-c4cc(=O)cc(N5CCOCC5)o4)c2S3)C[C@H](C)O1 [KU-60019] | increases the fraction of GFP+ cells | significant increase in GFP+ positive cells | massive increase in structural abnormalities | – |
| CN(Cc1cnc2nc(N)nc(N)c2n1)c1ccc(C(=O)N[C@@H](CCC(=O)O)C(=O)O)cc1 [MTX, methotrexate] | – | – | – | no reduction in SEAP titer |
